What is called EC50 is the concentration at which the effect is half-maximal.

Here are results for 25 compounds from US11242335B2, “Fluorine-substituted indazole compounds and uses thereof” (SUNSHINE LAKE PHARMA CO., LTD., priority 2017, dated 2022).

In this test the target is T1, soluble guanylate cyclase (sGC) expressed by CHO-K1-Rat sGC monoclonal cell line (Rattus norvegicus, UniProt P19686+P20595).
T1 construct: expressed in transfected cells; host or cells: CHO-K1
T1 sequence (P19686 1-690): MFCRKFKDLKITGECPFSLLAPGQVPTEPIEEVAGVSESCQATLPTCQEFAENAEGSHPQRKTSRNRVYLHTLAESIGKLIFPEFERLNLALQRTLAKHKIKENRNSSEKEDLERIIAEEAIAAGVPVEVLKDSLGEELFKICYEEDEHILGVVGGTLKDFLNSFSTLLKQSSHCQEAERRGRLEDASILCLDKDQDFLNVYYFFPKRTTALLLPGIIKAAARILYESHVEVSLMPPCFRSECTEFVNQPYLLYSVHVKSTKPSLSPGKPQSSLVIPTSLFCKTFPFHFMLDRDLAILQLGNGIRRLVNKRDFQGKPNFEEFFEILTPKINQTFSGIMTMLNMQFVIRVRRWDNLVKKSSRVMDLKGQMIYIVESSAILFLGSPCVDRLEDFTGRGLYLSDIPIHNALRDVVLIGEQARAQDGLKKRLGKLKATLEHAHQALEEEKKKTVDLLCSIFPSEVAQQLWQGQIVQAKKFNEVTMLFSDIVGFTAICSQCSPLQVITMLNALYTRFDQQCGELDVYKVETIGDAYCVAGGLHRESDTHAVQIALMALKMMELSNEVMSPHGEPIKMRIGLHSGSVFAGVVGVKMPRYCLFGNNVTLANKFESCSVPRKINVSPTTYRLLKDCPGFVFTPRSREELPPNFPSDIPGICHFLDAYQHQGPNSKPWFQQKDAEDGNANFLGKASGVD
T1 sequence (P20595 1-619): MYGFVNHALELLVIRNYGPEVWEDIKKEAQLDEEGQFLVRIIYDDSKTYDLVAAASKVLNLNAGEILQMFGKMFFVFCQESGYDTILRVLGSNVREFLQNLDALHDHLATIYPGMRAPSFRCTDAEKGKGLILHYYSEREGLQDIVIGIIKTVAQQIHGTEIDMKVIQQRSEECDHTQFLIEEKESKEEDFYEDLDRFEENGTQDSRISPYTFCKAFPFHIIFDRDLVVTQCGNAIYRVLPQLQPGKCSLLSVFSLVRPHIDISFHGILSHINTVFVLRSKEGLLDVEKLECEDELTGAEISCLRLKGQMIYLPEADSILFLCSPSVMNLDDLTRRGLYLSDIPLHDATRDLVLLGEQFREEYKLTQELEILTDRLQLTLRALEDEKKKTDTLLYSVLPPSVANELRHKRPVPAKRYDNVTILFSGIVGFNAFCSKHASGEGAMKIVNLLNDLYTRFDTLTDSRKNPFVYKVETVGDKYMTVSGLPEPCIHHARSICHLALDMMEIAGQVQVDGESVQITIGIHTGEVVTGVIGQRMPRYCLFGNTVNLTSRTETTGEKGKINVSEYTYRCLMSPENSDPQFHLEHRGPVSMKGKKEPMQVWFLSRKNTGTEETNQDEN
As to the kind of experiment: Effect on recombinant guanylate cyclase reporter cell line (CHO-K1-Rat sGC, Cisbio cGMP HTRF). It is filed as cell-based. As to conditions: activating soluble guanylate cyclase. The text has this:
Transfection of Soluble Guanylate Cyclase (sGC) gene into CHO-K1 cells and selection of cells with stably and highly expressed sGC: Rat sGCα1 and Rat sGCβ1 Genes were synthesized, and then pcDNA3.1(+)-rat sGCα1 and pcDNA3.1/Hygro (+)-rat sGCβ1 plasmid were constructed; the plasmid was co-transfected into CHO-K1 cells, and a positive clone cell line stably expressing CHO-K1-Rat sGC was selected using the Cisbio cGMP HTRF assay kit.
The activity of the compound on the CHO-K1-Rat sGC monoclonal cell line was determined: The CHO-K1-Rat sGC monoclonal cell line was cultured, and used for test operation at degree of fusion of about 70% to 90%. The cells were resuspended in complete medium after TrypLE digestion; the cells were inoculated in a 384-well (low volume tissues culture treated) cell culture plate at a seeding density of 7500/well in 25 μL of complete medium and incubated at 37° C. in 5% CO2 atmosphere for 20 hours; the test compounds were dissolved and dilute with DMSO to give 10 concentration gradients (2× working concentration); 384-well cell culture plates were centrifugated (200 g) for 3 seconds by inversion at RT, medium was removed; The test compounds in each different concentration gradient and corresponding reagent were added into each cell well according to the detection process of Cisbio cGMP HTRF assay kit. The data were collected with Envision HTRF detector and the EC50 value of each compound in activating soluble guanylate cyclase was calculated.
For orientation: TR-FRET usually uses a lanthanide donor and a delayed reading to cut background.
Take `Nc1nc(-c2nn(Cc3ccccc3F)c3cc(F)ccc23)nc(N)c1NC1CCOC1` (stereo not shown) [Example 9, 2-(6-fluoro-1-(2-fluorobenzyl)-1H-indazol-3-yl)-N^5-(tetrahydrofuran-3-yl) pyrimidine-4,5,6-triamine]: the concentration for a half-maximal effect (EC50) is 680 nM.

Consider `Nc1nc(-c2nn(Cc3ccccc3F)c3c(F)cccc23)nc(N)c1NC1CCOC1` (stereo not shown) [Example 12, 2-(7-fluoro-1-(2-fluorobenzyl)-1H-indazol-3-yl)-N^5-(tetrahydrofuran-3-yl)pyrimidine-4,5,6-triamine], for which the EC50 stood at 120 nM.

Take `Nc1nc(-c2nn(Cc3ccccc3F)c3c(F)cccc23)nc(N)c1N1CCOCC1` [Example 14, 2-(7-fluoro-1-(2-fluorobenzyl)-1H-indazol-3-yl)-5-morpholinopyrimidine-4,6-diamine]: the concentration giving a half-maximal response (EC50) amounted to 62 nM. For the compound `Nc1nc(-c2nn(Cc3ccccc3F)c3c(F)cccc23)nc(N)c1NC(=O)C1CCCO1` (stereo not shown) [Example 16, N-(4,6-diamino-2-(7-fluoro-1-(2-fluorobenzyl)-1H-indazol-3-yl)pyrimidin-5-yl)tetrahydrofuran-2-carboxamide], the EC50 came to 690 nM.

On to `Nc1nc(-c2nn(Cc3ccccc3F)c3c(F)cccc23)nc(N)c1NC(=O)C1CCCCO1` (stereo not shown) [Example 17, N-(4,6-diamino-2-(7-fluoro-1-(2-fluorobenzyl)-1H-indazol-3-yl)pyrimidin-5-yl)tetrahydro-2H-pyran-2-carboxamide], for which the 50% effective concentration (EC50) worked out at 420 nM. The figure for `Oc1nc(-c2nn(Cc3ccccc3F)c3c(F)cccc23)ncc1F` [Example 25, 5-fluoro-2-(7-fluoro-1-(2-fluorobenzyl)-1H-indazol-3-yl)pyrimidin-4-ol] is 860 nM. The figure for `CC(C)(O)CNc1c(N)nc(-c2nn(Cc3ccccc3F)c3c(F)cccc23)nc1N` [Example 26, 1-((4,6-diamino-2-(7-fluoro-1-(2-fluorobenzyl)-1H-indazol-3-yl)pyrimidin-5-yl)amino)-2-methylpropan-2-ol] is 100 nM; for `CC(Nc1c(N)nc(-c2nn(Cc3ccccc3F)c3c(F)cccc23)nc1N)C1CCOCC1` (stereo not shown) [Example 28, 2-(7-fluoro-1-(2-fluorobenzyl)-1H-indazol-3-yl)-N^5-(1-(tetrahydro-2H-pyran-4-yl)ethyl)pyrimidine-4,5,6-triamine] it is 94 nM. Consider `Nc1nc(-c2nn(Cc3ccccc3F)c3c(F)cccc23)ncc1C(=O)O` [Example 30, 4-amino-2-(7-fluoro-1-(2-fluorobenzyl)-1H-indazol-3-yl)pyrimidine-5-carboxylic acid], for which the EC50 amounted to 820 nM. As for `Nc1nc(-c2nn(Cc3ccccc3F)c3c(F)cccc23)ncc1C(=O)NC1CC1` [Example 31, 4-amino-N-cyclopropyl-2-(7-fluoro-1-(2-fluorobenzyl)-1H-indazol-3-yl) pyrimidine-5-carboxamide], the EC50 is 35 nM. To `CNC(=O)c1cnc(-c2nn(Cc3ccccc3F)c3c(F)cccc23)nc1N` [Example 32, 4-amino-2-(7-fluoro-1-(2-fluorobenzyl)-1H-indazol-3-yl)-N-methyl pyrimidine-5-carboxamide] belongs 89 nM; to `COC(=O)N(C)c1c(N)nc(-c2nn(Cc3cncnc3)c3c(F)cccc23)nc1N` [Example 34, methyl (4,6-diamino-2-(7-fluoro-1-(pyrimidin-5-ylmethyl)-1H-indazol-3-yl)pyrimidin-5-yl)(methyl)carbamate], 810 nM; to `Nc1nc(-c2nn(Cc3ccccc3F)c3c(F)cccc23)nc(N)c1C(=O)O` [Example 42, 4,6-diamino-2-(7-fluoro-1-(2-fluorobenzyl)-1H-indazol-3-yl)pyrimidine-5-carboxylic acid], 760 nM. `Nc1nc(-c2nn(Cc3ccccc3F)c3c(F)cccc23)nc(N)c1C(=O)NC1CC1` [Example 44, 4,6-diamino-N-cyclopropyl-2-(7-fluoro-1-(2-fluorobenzyl)-1H-indazol-3-yl) pyrimidine-5-carboxamide]: the 50% effective concentration (EC50) amounted to 340 nM. Take `CN(C)C(=O)c1cnc(-c2nn(Cc3ccccc3F)c3c(F)cccc23)nc1N` [Example 45, 4-amino-2-(7-fluoro-1-(2-fluorobenzyl)-1H-indazol-3-yl)-N,N-dimethyl pyrimidine-5-carboxamide]: the EC50 came to 160 nM. Take `Nc1nc(-c2nn(Cc3ccccc3F)c3c(F)cccc23)ncc1C(=O)N1CCOCC1` [Example 46, (4-amino-2-(7-fluoro-1-(2-fluorobenzyl)-1H-indazol-3-yl)pyrimidin-5-yl) (morpholino)methanone]: the EC50 turned out to be 200 nM. Take `Nc1nc(-c2nn(Cc3ccccc3F)c3c(F)cccc23)ncc1C(=O)N1CCCC1` [Example 47, (4-amino-2-(7-fluoro-1-(2-fluorobenzyl)-1H-indazol-3-yl)pyrimidin-5-yl) (pyrrolidin-1-yl)methanone]: the EC50 came out at 120 nM. To `Nc1nc(-c2nn(Cc3ccccc3F)c3c(F)cccc23)ncc1C(=O)NCCO` [Example 49, 4-amino-2-(7-fluoro-1-(2-fluorobenzyl)-1H-indazol-3-yl)-N-(2-hydroxyethyl)pyrimidine-5-carboxamide] belongs 270 nM; to `Nc1nc(-c2nn(Cc3ccccc3F)c3c(F)cccc23)ncc1C(=O)N1CCS(=O)(=O)CC1` [Example 51, (4-amino-2-(7-fluoro-1-(2-fluorobenzyl)-1H-indazol-3-yl)pyrimidin-5-yl) (1,1-dioxidothiomorpholino)methanone], 420 nM; to `Nc1nc(-c2nn(Cc3ccccc3F)c3c(F)cccc23)ncc1C(=O)N1CCC(F)(F)CC1` [Example 52, (4-amino-2-(7-fluoro-1-(2-fluorobenzyl)-1H-indazol-3-yl)pyrimidin-5-yl) (4,4-difluoropiperidin-1-yl)methanone], 110 nM. As for `CN1CCN(C(=O)c2cnc(-c3nn(Cc4ccccc4F)c4c(F)cccc34)nc2N)CC1` [Example 53, (4-amino-2-(7-fluoro-1-(2-fluorobenzyl)-1H-indazol-3-yl)pyrimidin-5-yl) (4-methylpiperazin-1-yl)methanone], the EC50 was 390 nM. For the compound `Nc1nc(-c2nn(Cc3ccccc3F)c3c(F)cccc23)ncc1C(=O)N1CC(O)C1` [Example 54, (4-amino-2-(7-fluoro-1-(2-fluorobenzyl)-1H-indazol-3-yl)pyrimidin-5-yl) (3-hydroxyazetidin-1-yl)methanone], the concentration giving a half-maximal response (EC50) turned out to be 140 nM. To `CNC(=O)c1cnc(-c2nn(Cc3ccccc3F)c3c(F)cccc23)nc1` [Example 56, 2-(7-fluoro-1-(2-fluorobenzyl)-1H-indazol-3-yl)-N-methylpyrimidine-5-carboxamide] belongs 340 nM. Consider `O=C(NC1CC1)c1cnc(-c2nn(Cc3ccccc3F)c3c(F)cccc23)nc1` [Example 57, N-cyclopropyl-2-(7-fluoro-1-(2-fluorobenzyl)-1H-indazol-3-yl)pyrimidine-5-carboxamide], for which the EC50 was 79 nM. The figure for `OCCCNc1nc(-c2nn(Cc3ccccc3F)c3c(F)cccc23)ncc1F` [Example 59, 3-((5-fluoro-2-(7-fluoro-1-(2-fluorobenzyl)-1H-indazol-3-yl)pyrimidin-4-yl)amino)propan-1-ol] is 58 nM.
